{"source": "patent US8603493B2", "about": "“Carbosilane dendrimers, preparation method thereof and use of same” (Dendrico, S.L., priority 2005, dated 2013)", "key": {"PBMC": {"system": "PBMC", "experiment": "Transfection test of PBMC (confocal microscopy)", "assay_type": "cell-based, human", "conditions": "after 48 hours", "method": "After incubations with the mixtures containing fluorescent ODNs, dendriplexes, dendrimers or RPMI, the cells were treated for the subsequent acquisition of images in the conventional confocal or fluorescence microscope. The cells were adhered to glass slides with wells of 30 mm in diameter by Poly-L-lysine, (PLL) (Sigma®). To do this, the slides were preincubated with 30 μl of PLL during 2 hours in an incubator at 37° C. and 5% CO2. After this incubation, the excess PLL was washed with PBS. The cells from each treatment that were going to be adhered in the PLL were washed twice with PBS and were labelled for 1 minute with 0.8% Trypan Blue (Sigma®) to then show the […] cells. They were again washed twice with PBS. At that time the cells were added to the well (100,000/well), being disposed on the PLL during 1 hour in an incubator at 37° C. and 5% CO2. After this hour, the excess volume was washed with PBS and the cells were treated with recently prepared 3% paraformaldehyde (PFA) (within 2 weeks of its use) during 10 minutes. […] Finally, the preparation was mounted using a special medium for fluorescence (DAKO Cytomation Fluorescent Mounting Medium®) with antifading (designed to protect the sample from deterioration caused by lasers). […] After the capture of images, it was analysed using Leica® software. […]"}, "plasmid Nf-kappaB-luc": {"system": "plasmid Nf-kappaB-luc", "experiment": "Capacity to form complexes with large-sized DNA (plasmid)", "assay_type": "binding", "conditions": "charge ratio (+/−)=6/1 manages to retain DNA migration", "method": "In a similar form to the previous experiments, electrophoresis was carried out with different samples, placing them a ladder type marker which measures up to 5000 pb in the well previous to it."}, "U87-MG cells": {"system": "U87-MG cells", "experiment": "Toxicity in U-87-MG cells: LDH in the supernatant", "from_the_text": "The concentrations and volumes of each one of these compounds were the same used in the test performed with MTT. The commercial kit Cytotoxicity Detection KitPLUS (LDH), from Roche Applied Science was used to determine lactate dehydrogenase, following the manufacturer's instructions."}}}
{"smiles": "C[Si](C)(CCCN)CCC[Si](C)(CCC[Si](C)(C)CCCN)CCC[Si](CCC[Si](C)(CCC[Si](C)(C)CCCN)CCC[Si](C)(C)CCCN)(CCC[Si](C)(CCC[Si](C)(C)CCCN)CCC[Si](C)(C)CCCN)CCC[Si](C)(CCC[Si](C)(C)CCCN)CCC[Si](C)(C)CCCN.Cl.Cl.Cl.Cl.Cl.Cl.Cl.Cl", "note": "[ClNH4, 2G-[Si(CH2)3NH3^+Cl^−]8]", "values": [{"measurement": "fluorescence pattern after transfection with PPT dendriplexes", "setting": "PBMC", "value": "fluorescence pattern in aggregates"}]}
{"smiles": "C[N+](C)(C)CCO[Si](C)(C)CCC[Si](C)(CCC[Si](CCC[Si](C)(CCC[Si](C)(C)OCC[N+](C)(C)C)CCC[Si](C)(C)OCC[N+](C)(C)C)(CCC[Si](C)(CCC[Si](C)(C)OCC[N+](C)(C)C)CCC[Si](C)(C)OCC[N+](C)(C)C)CCC[Si](C)(CCC[Si](C)(C)OCC[N+](C)(C)C)CCC[Si](C)(C)OCC[N+](C)(C)C)CCC[Si](C)(C)OCC[N+](C)(C)C.[I-].[I-].[I-].[I-].[I-].[I-].[I-].[I-]", "note": "[IM8, 2G-[Si(OCH2CH2NMe3^+I^−)]8]", "values": [{"measurement": "complex formation with plasmid", "setting": "plasmid Nf-kappaB-luc", "value": "capable of forming complexes with the plasmid used"}]}
{"smiles": "CN(CCO[Si](C)(C)CCC[Si](C)(CCC[Si](CCC[Si](C)(CCC[Si](C)(C)OCCN(C)CC[N+](C)(C)C)CCC[Si](C)(C)OCCN(C)CC[N+](C)(C)C)(CCC[Si](C)(CCC[Si](C)(C)OCCN(C)CC[N+](C)(C)C)CCC[Si](C)(C)OCCN(C)CC[N+](C)(C)C)CCC[Si](C)(CCC[Si](C)(C)OCCN(C)CC[N+](C)(C)C)CCC[Si](C)(C)OCCN(C)CC[N+](C)(C)C)CCC[Si](C)(C)OCCN(C)CC[N+](C)(C)C)CC[N+](C)(C)C.[I-].[I-].[I-].[I-].[I-].[I-].[I-].[I-]", "note": "[NN, 2G-[Si(O(CH2)2N(Me)(CH2)2NMe3^+I^−)]8]", "values": [{"measurement": "cytotoxicity (LDH), comparison", "setting": "U87-MG cells", "value": "greater cytotoxicity as their concentration increases"}]}
